Assay results taken from patent US10246469B2, “Biaryl kinase inhibitors” (BRISTOL-MYERS SQUIBB COMPANY, priority 2015, dated 2019).

Molecular target: T1, GST-Xa-hAAK1 (Homo sapiens, UniProt Q2M2I8)
T1 construct: GST (N); Factor Xa cleavage site (Xa) (internal); made in house
Experiment: AAK1 Kinase Assay
Assay type: biochemical
Conditions: bacterially expressed GST-Xa-hAAK1 3.5 nM; ATP 22 μM; fluoresceinated peptide 1.5 μM; 3 hours at room temperature; Caliper LabChip 3000
How it was run: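 Bacterially expressed GST-Xa-hAAK1 (3.5 nM) phosphorylated 1.5 μM 5-FAM peptide with 22 μM ATP in Tris pH 7.4, MgCl2, DTT, 1.6% DMSO, 3 h at room temperature. EDTA-stopped; product separated electrophoretically on Caliper LabChip. IC50 from eleven concentrations by non-linear regression.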

T1 sequence (Q2M2I8 whole entry): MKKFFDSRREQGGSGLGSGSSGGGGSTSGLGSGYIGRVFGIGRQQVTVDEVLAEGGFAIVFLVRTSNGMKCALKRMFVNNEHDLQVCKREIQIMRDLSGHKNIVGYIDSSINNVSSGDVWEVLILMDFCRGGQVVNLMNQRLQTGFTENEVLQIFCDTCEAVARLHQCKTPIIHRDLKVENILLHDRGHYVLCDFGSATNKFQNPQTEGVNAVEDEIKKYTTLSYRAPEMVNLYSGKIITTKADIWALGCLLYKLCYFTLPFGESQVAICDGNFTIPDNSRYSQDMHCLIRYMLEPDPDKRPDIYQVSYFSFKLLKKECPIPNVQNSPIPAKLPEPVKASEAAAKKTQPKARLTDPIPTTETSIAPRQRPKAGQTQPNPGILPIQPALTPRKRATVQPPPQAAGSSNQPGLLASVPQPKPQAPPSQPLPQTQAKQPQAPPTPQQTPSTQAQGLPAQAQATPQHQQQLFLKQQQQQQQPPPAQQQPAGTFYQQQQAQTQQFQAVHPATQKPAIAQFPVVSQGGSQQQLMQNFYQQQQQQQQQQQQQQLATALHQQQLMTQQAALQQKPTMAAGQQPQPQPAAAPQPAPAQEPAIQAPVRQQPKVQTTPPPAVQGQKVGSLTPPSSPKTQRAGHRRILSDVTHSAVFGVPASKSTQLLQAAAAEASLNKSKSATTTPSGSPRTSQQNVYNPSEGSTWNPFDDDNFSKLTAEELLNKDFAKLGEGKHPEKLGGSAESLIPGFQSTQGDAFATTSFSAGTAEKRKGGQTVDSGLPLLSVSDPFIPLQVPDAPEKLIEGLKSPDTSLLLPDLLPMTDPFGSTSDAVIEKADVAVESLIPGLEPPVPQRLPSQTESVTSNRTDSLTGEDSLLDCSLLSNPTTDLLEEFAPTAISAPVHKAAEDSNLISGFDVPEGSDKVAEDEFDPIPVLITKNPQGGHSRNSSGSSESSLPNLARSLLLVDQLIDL

SMILES | IC50 [nM]
CC(C)C[C@](C)(N)COc1ccc(-c2ccnc3cc(C(F)(F)F)nn23)cc1Cl [Example 336, (S)-1-(2-chloro-4-(2-(trifluoromethyl)pyrazolo[1,5-a]pyrimidin-7-yl)phenoxy)-2,4-dimethylpentan-2-amine] | 15
Cc1cn2nccc(-c3ccc(OC[C@@](C)(N)CC(C)C)c(C#N)c3)c2n1 [Example 492, (S)-2-((2-amino-2,4-dimethylpentyl)oxy)-5-(2-methylimidazo[1,2-b]pyridazin-8-yl)benzonitrile] | 1.8
CC(C)C[C@](C)(N)COc1ccc(-c2ccnc(NC3CCNCC3)c2)cc1C#N [Example 466, (S)-2-(2-amino-2,4-dimethylpentyloxy)-5-(2-(piperidin-4-ylamino)pyridin-4-yl) benzonitrile] | 64
Cc1cc(-c2ccnc3ccnn23)ccc1OC[C@@](C)(N)CC(C)C [Example 472, (S)-2,4-dimethyl-1-(2-methyl-4-(pyrazolo[1,5-a]pyrimidin-7-yl)phenoxy)pentan-2-amine] | 0.5
Cc1cn2nc(Cl)cc(-c3ccc(OC[C@@](C)(N)CC(C)C)c(C(F)(F)F)c3)c2n1 [Example 495, (S)-1-(4-(6-chloro-2-methylimidazo [1,2-b]pyridazin-8-yl)-2-(trifluoromethyl)phenoxy)-2,4-dimethylpentan-2-amine] | 66
Cc1cc(-c2ccnc(Nc3nccs3)n2)ccc1OC[C@@](C)(N)CC(C)C [Example 368, (S)—N-(4-(4-((2-amino-2,4-dimethylpentyl)oxy)-3-methylphenyl)pyrimidin-2-yl)thiazol-2-amine] | 0.3
Cc1n[nH]c(C)c1-c1ccc(OC[C@@](C)(N)CC(C)C)c(F)c1 [Example 251, (S)-1-(4-(3,5-dimethyl-1H-pyrazol-4-yl)-2-fluorophenoxy)-2,4-dimethylpentan-2-amine] | 310
CC(C)C[C@](C)(N)COc1ccc(-c2ncnc3c2ccn3C)cc1C#N [Example 364, (S)-2-((2-amino-2,4-dimethylpentyl)oxy)-5-(7-methyl-7H-pyrrolo[2,3-d]pyrimidin-4-yl)benzonitrile] | 24
CC(C)C[C@](C)(N)COc1ccc(-c2cnc3cccnn23)cc1Cl [Example 503, (S)-1-(2-chloro-4-(imidazo [1,2-b]pyridazin-3-yl)phenoxy)-2,4-dimethylpentan-2-amine] | 62
Cc1cc(-c2ccnc(NC3CC3)n2)ccc1OC[C@@](C)(N)CC(C)C [Example 369, (S)-4-(4-((2-amino-2,4-dimethylpentyl)oxy)-3-methylphenyl)-N-cyclopropylpyrimidin-2-amine] | 1.7
CC(C)C[C@](C)(N)COc1ccc(-c2ccnc(NC3CCCOC3)c2)cc1C(F)(F)F (single isomer, unassigned) [Example 477] | 50
CC(C)C[C@](C)(N)COc1ccc(-c2ncnc3[nH]ccc23)cc1Cl [Example 361, (S)-1-(2-chloro-4-(7H-pyrrolo[2,3-d]pyrimidin-4-yl)phenoxy)-2,4-dimethylpentan-2-amine] | 1.7
CC(C)C[C@](C)(N)COc1ccc(-c2ccnc3ccnn23)nc1CF [Example 276, (S)-1-((2-(fluoromethyl)-6-(pyrazolo[1,5-a]pyrimidin-7-yl)pyridin-3-yl)oxy)-2,4-dimethylpentan-2-amine] | 0.9
CC(C)C[C@](C)(N)COc1ccc(-c2cnn3cccnc23)cc1C(F)(F)F [Example 473, (S)-2,4-dimethyl-1-(4-(pyrazolo[1,5-a]pyrimidin-3-yl)-2-(trifluoromethyl)phenoxy)pentan-2-amine] | 112
CC(C)C[C@](C)(N)COc1ccc(-c2ccnc3ccnn23)c2scnc12 [Example 341, (S)-2,4-dimethyl-1-((7-(pyrazolo[1,5-a]pyrimidin-7-yl)benzo[d]thiazol-4-yl)oxy)pentan-2-amine] | 212
Cc1cc(-c2ccnc(NC3CCOC3)c2)ccc1OC[C@@](C)(N)CC(C)C (stereo partly drawn) [Example 346, 4-(4-(((S)-2-amino-2,4-dimethylpentyl)oxy)-3-methylphenyl)-N-(tetrahydrofuran-3-yl)pyridin-2-amine] | 23
Cc1nc(-c2ccnc3ccnn23)ccc1OCC(N)(CC(C)C)C(F)(F)F (stereo not shown) [Example 490, 1,1,1-trifluoro-4-methyl-2-(((2-methyl-6-(pyrazolo[1,5-a]pyrimidin-7-yl)pyridin-3-yl)oxy)methyl)pentan-2-amine] | 37
CC(C)C[C@](C)(N)COc1ccc(-c2ccnc3cc(C4CC4)nn23)cc1C(F)(F)F [Example 483, (S)-1-(4-(2-Cyclopropylpyrazolo[1,5-a]pyrimidin-7-yl)-2-(trifluoromethyl)phenoxy)-2,4-dimethylpentan-2-amine] | 2.7
CC(C)C[C@](C)(N)COc1ccc(-c2ccnc(NC(=O)c3nccs3)c2)cc1Cl [Example 260, (S)—N-(4-(4-((2-amino-2,4-dimethylpentyl)oxy)-3-chlorophenyl)pyridin-2-yl)thiazole-2-carboxamide] | 0.48
CC(C)C[C@](C)(N)COc1ccc(-c2ccnc3c2C(=O)N(C)C3)cc1C#N [Example 414, (S)-2-((2-amino-2,4-dimethylpentyl)oxy)-5-(6-methyl-5-oxo-6,7-dihydro-5H-pyrrolo[3,4-b]pyridin-4-yl)benzonitrile] | 47
CC(C)C[C@](C)(N)COc1ccc(-c2ccnc3ccnn23)cc1CF [Example 353, (S)-1-(2-(fluoromethyl)-4-(pyrazolo[1,5-a]pyrimidin-7-yl)phenoxy)-2,4-dimethylpentan-2-amine] | 0.2
CC(C)C[C@](C)(N)COc1ccc(-c2cc(Cl)nn3cc(C4CC4)nc23)cc1C(F)(F)F [Example 496, (S)-1-(4-(6-chloro-2-cyclopropylimidazo [1,2-b]pyridazin-8-yl)-2-(trifluoromethyl)phenoxy)-2,4-dimethylpentan-2-amine] | 297
